Measurements as given in US6773702B2, “Use of combretastatin A4 and its prodrugs as an immune enhancing therapy” (OXiGENE, Inc., priority 2000, dated 2004).

Key:
[1] = test system: spleen cells of H1D2-WT tumor-bearing rat; experiment: In vitro proliferative response of spleen cells from a tumor-bearing rat treated with CA4 plus immunotherapy (FIG. 4); assay type: in vivo; conditions: for T cell proliferative response: CA4 2 mg/kg + active immunotherapy
Experimental: FIG. 4 illustrates the enhanced in vitro immune proliferative response (cpm) of spleen cells isolated from (H1D2-WT) a tumor-bearing rat previously treated in vivo with a combination of active immunomodulatory therapy and CA4 (2 mg/kg, 6 days a week). Spleen cells were tested 9 weeks after tumor inoculation when tumor sizes was 0.9 cm^3. LO signifies spleen cells containing adherent macrophages, whereas L1 represents the same population depleted of adherent macrophages. A subset of each cell sample was treated with either medium (Med) or L-NAME (1.5 mg/ml).
While the anti-tumor properties of CA4 and CA4P are very different, the present invention embraces the discovery that a low dose of either compound is capable of enhancing the immune responsiveness of a tumor host. FIG. 4 illustrates the in vitro immune proliferation of spleen cells isolated from a tumor-bearing rat previously subjected to treatment with a combination of CA4 (2 mg/kg) and active immunotherapy. The rat was killed 9 weeks after initiation of intrahepatic tumor growth, at which point the tumor had grown to a size of 0.9 cm^3. Control rats receiving immunotherapy alone were euthanized 5 weeks earlier due to the development of large tumor burdens (>5 cm3).
A tumor-bearing rat (H1D1-WT) was treated in vivo with weekly immunizations of IL-18 transfected tumor cells (H1D1-IL-18), in addition to CA4 treatment (2 mg/kg) 6 days a week. Due to the inherent insolubility of CA4, […] (0.9 cm^3 tumor) following […] of growth, at which point the untreated control rats were all dead with large tumor burdens (>5 cm^3) and would not be expected to show an immune response at such a late stage. Both unseparated spleen cells (L0) and nonadherent spleen cells (L1), depleted of most macrophages by plastic adherence (as in Example 2), were tested for a proliferative response to H1D2-IL18 tumor stimulator cells in the absence or presence of the NO-synthase inhibitor L-NAME.

[2] = cited from earlier work
[3] = test system: BN7005-H1D2 colon cancer cells; experiment: Comparison of CA4 and CA4P on BN7005-H1D2 tumor growth, alone or with vaccination (FIG. 5); assay type: in vivo, rat
Experimental: FIGS. 5A AND 5B illustrate a comparison of the therapeutic effect of Combretastatin A4 and Combretastatin A4 Prodrug (2 mg/kg) on tumor growth (BN7005-H1D2) in vivo as a sole therapy or in combination with therapeutic vaccination (IL-18 tumor transfectants). Results are represented as mean tumor volume (FIG. 5A) or as median tumor volume (FIG. 5B) 31 days after tumor initiation.
A comparison was also made of relative effect of CA4 and CA4P administration in vivo with regard to tumor inhibitory effects when used as sole therapy and when combined with immunomodulatory gene therapy. […] A subset of these animals were subjected to regular vaccinations autologous IL-18 and IL-12-transfected tumor cells, respectively.
A comparison has been made of the effect of CA4 and CA4 prodrug with regard to tumor inhibitory effects when used as sole therapy and when combined with immunomodulatory gene therapy. As represented in FIG. 5, wild-type (BN7005-H1D2) colon cancer cells were inoculated intrahepatically and treatment with CA4 and CA4P began on day 7 (2 mg/kg 6 days a week), when the tumors were macroscopically visible. On day 9, 16 and 23, vaccinations occurred using BN7005-H1D2 cells transfected with ILI8 and IL-12, respectively.

[4] = test system: BN7005-H1D2 colon cancer cells; experiment: Tumor growth with IL-18/IFN-γ vaccination plus CA4P and/or L-NAME (FIG. 6); assay type: in vivo, rat; conditions: L-NAME by gavage 48 mg/rat + vaccination with IL-18/IFN-γ producing tumor cells
Experimental: FIG. 6 illustrates enhancement of the therapeutic effect of vaccination with IL-18/IFN-γ producing tumor transfectant […] cells by concurrent treatment with low dose combretastatin-A4 prodrug and/or L-NAME. Mean tumor volume±SEM is indicated. Significance of differences compared to the PBS control was evaluated by the Student's t test.
Four groups of 6 rats each were inoculated intrahepatically with 1×10^5 wild type colon cancer cells (BN7005-H1D2) on day 0. Drug treatment was initiated on day 7, when the tumor was macroscopically visible as a small nodule, and was repeated 5 days a week. CA4-P was administered i.p. at a dose of 5 mg/kg and L-NAME by gavage at a dose of 48 mg/rat. Vaccination was given twice i.p. on day 10.and 17 with 2×10^6 tumor cells producing IL-18 and IFN-γ, respectively. No drug treatment was given on the day of vaccination and the day after. On day 28 all animals were laparotomized and tumor diameters measured (the longest diameter (a) and the one perpendicular to the first (b) and tumor volume calculated according to the formula 0.4×a×b×b.
Referring to FIG. 6, wild-type (BN7005-H1D2) colon cancer cells were inoculated intrahepatically and combretastatin A4 prodrug treatment began daily on day 7 when the tumors were macroscopically visible. L-NAME, a well known NO inhibitor and effective antitumor agent, was also administered daily. On day 10 and 17 vaccination occurred using BN7005-H1D2 cells transfected with IL-18/IFN-gamma. […] One likely explanation was that both L-NAME and Combretastatin A4 were doing the same thing; i.e. inhibiting the production of proinflammatory cytokines that cause immune suppression.

[5] = test system: colon carcinoma H1D2-WT cells; experiment: Intrahepatic growth of colon carcinoma H1D2-WT, tumor volume after 4 weeks (Table 2); assay type: in vivo, rat; conditions: no CA4-P; L-NAME gavage; with immunization
Experimental: Table 2 is a summary of intrahepatic growth of colon carcinoma H1D2-WT cells treated with low dose CA4P alone or in combination with immunomodulatory gene therapy, and with or without additional inhibitor. Tumor growth was initiated by inoculation beneath the liver capsule with 1×10^5 in vitro cultured BN7005-H1D2 wild type cells suspended in 50 μl RPMI medium. Drug administration (CA4P, L-NAME, Indomethacin) was initiated after 7-8 days when the tumor was macroscopically visible. CA4P was given intraperitoneally, 5 days a week. L-NAME was given by gavage twice a week on the day of immunization and the day after. Indomethacin was given by gavage 48 h after vaccination at a dose of 0.33 mg/kg. Immunization was performed by intraperitoneal administration on day 10 and day 17 using BN7005-H1D2 cells transfected with IL-18 or a mixture of IL-18 and IL-12 transfectants (2-3×10^6 viable cells per rat).
Wild-type (BN7005-H1D2) colon cancer cells (1×10^5 cells) were inoculated intrahepatically and CA4P drug treatment (2 and 5 mg/kg) began daily when the tumors were macroscopically visible. On day 10 and 17, vaccinations were administered intraperitoneally using […] cells transfected with IL-18 transfected cells or mixtures of IL-18 and IL-12 transfected cells (2-3×10^6 viable cells per rat). L-NAME and Indomethacin were also administered by gavage 48 h after vaccination at a dose of 0.33 mg/kg.

SMILES	Tumor size ([1]; 9 weeks after initiation of intrahepatic tumor growth, CA4 2 mg/kg + active immunotherapy (controls >5 cm3))	T cell proliferative response ([1]; non-adherent T cells (L1), 9 weeks)	T cell proliferative response ([1]; unseparated spleen cells (L0) in the presence of L-NAME in vitro)	T cell proliferative response ([1]; unseparated spleen cells (L0), 9 weeks after tumor initiation)	Solubility in water [2]	Tumor inhibitory effect ([3]; 2 mg/kg 6 days a week as sole therapy)	Tumor inhibitory effect ([3]; 2 mg/kg combined with vaccination (IL-18 and IL-12 transfected tumor cells))	Enhancement of immune stimulated gene therapy [4]	Tumor volume after 4 weeks, Mean [5]	Tumor volume after 4 weeks, Median [5]
COc1ccc(/C=C\c2cc(OC)c(OC)c(OC)c2)cc1O [CA4, Combretastatin A4]	0.9 cm^3	86,000 cpm	44,000 cpm	9000 cpm	very limited	no significant effect as sole therapy	significant tumor inhibitory effects	–	–	–
COC(=O)[C@@H](N)CCCNC(=N)N[N+](=O)[O-] [L-NAME, reference compound]	–	–	–	–	–	–	–	effective enhancers of immune stimulated gene therapy	1285 mm^3	879 mm^3
